PubChem BioAssay (NCI)
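Results reflect a 48-hour exposure of cells in 96-well plates to compound at five concentrations. Definition used: TGI = concentration required for complete inhibition of growth.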

Key:
Test in all cases: growth of human tumour cells (NCI), 48 h
[1] = test system: COLO 205 colon
[2] = test system: HOP-62 NSCLC
[3] = test system: HOP-92 NSCLC
[4] = test system: KM12 colon
[5] = test system: MALME-3M melanoma
[6] = test system: MDA-MB-435
[7] = test system: OVCAR-3 ovarian
[8] = test system: SF-295 CNS
[9] = test system: SK-MEL-28 melanoma
[10] = test system: SW-620 colon
[11] = test system: NCI-H226 lung

Structure (SMILES) | TGI [1] [µM] | TGI [2] [µM] | TGI [3] [µM] | TGI [4] [µM] | TGI [5] [µM] | TGI [6] [µM] | TGI [7] [µM] | TGI [8] [µM] | TGI [9] [µM] | TGI [10] [µM] | TGI [11] [µM]
Clc1ccc(C(OCn2ccnc2)c2nc3ccccc3[nH]2)c(Cl)c1 (stereo not drawn) | > 100 | > 100 | 10.1 | > 100 | > 100 | > 100 | > 100 | > 100 | > 100 | > 100 | 
CC1=C(C(=O)NNC(=O)C[N+](C)(C)C)CC(C(=O)NNC(=O)C[N+](C)(C)C)=C(C)N1 | > 100 | > 100 | > 100 | > 100 |  | > 100 | > 100 | > 100 |  | > 100 | > 100
Nc1nccc(NCC2(CO)CC(CCc3ccccc3)C2)n1 (stereo not drawn) | 29.5 | 38 |  | 41.7 | 29.1 | 28.7 | 38.9 | 26.4 | 36.5 | 43.7 | 51.7
Cc1cccc(C)c1NC(=O)C(=O)CC(=O)c1sc(Nc2c(C)cccc2C)nc1C | > 100 | > 100 | > 100 | > 100 |  | > 100 | > 100 | > 100 |  | > 100 | > 100
CN(CC(=O)Nc1ccccc1C(=O)O)c1ccccc1 |  | > 100 | > 100 | > 100 | > 100 |  | > 100 | > 100 | > 100 | > 100 | > 100
Cc1cc(C=O)c2c(=O)c3c(O)ccc(/C=C/C(C)C)c3oc2c1 | > 100 | > 100 | > 100 | > 100 | > 100 |  | > 100 | > 100 | > 100 | > 100 | > 100
CCOc1ccc(OP2(=O)NC(=O)C=C(C)N2)cc1 (stereo not drawn) | > 100 | > 100 | > 100 | > 100 | > 100 |  | > 100 | > 100 | > 100 | > 100 | > 100
COc1ccc(OC/C(N)=N/NC(=O)c2ccncc2)cc1 | > 100 | > 100 | > 100 | > 100 | > 100 | > 100 | > 100 | > 100 | > 100 | > 100 | 
COC(=O)/C(=N\N)C(C(=O)C(=O)Nc1cc(Cl)ccc1Cl)c1nc2ccc([N+](=O)[O-])cc2[nH]c1=O (stereo not drawn) |  | > 100 | > 100 | > 100 | > 100 | > 100 | > 100 | > 100 | > 100 | > 100 | > 100
O=C(NC1CCCCC1)c1n[nH]nc1Cl | > 100 | > 100 | > 100 | > 100 |  | > 100 | > 100 | > 100 | > 100 | > 100 | 
CCOC(=O)C1(C)CCC(C(=O)OC)C1=O (stereo not drawn) | > 100 | > 100 | > 100 | > 100 | > 100 |  | > 100 | > 100 | > 100 |  | > 100
CN1S(=O)(=O)N(C)P12(N=P(CP(=NP13(N(C)S(=O)(=O)N1C)N(C)S(=O)(=O)N3C)(c1ccccc1)c1ccccc1)(c1ccccc1)c1ccccc1)N(C)S(=O)(=O)N2C | > 100 | > 100 | > 100 | > 100 | > 100 |  | > 100 |  | > 100 | > 100 | > 100
O=C(c1c(F)c(F)c(F)c(F)c1F)n1c(=S)n(C(=O)c2c(F)c(F)c(F)c(F)c2F)c2ccccc21 | > 100 | > 100 | > 100 | > 100 |  |  |  | > 100 | > 100 | > 100 | 
CCCCCCC1OC23OC1CCC2C(O)CCC3O (stereo not drawn) | > 100 | > 100 |  | > 100 | > 100 | > 100 | > 100 | > 100 | > 100 | > 100 | > 100
N#CCC(=O)N/N=C\C(O)C(O)C(O)C(O)CO (stereo not drawn) |  | > 100 |  | > 100 | > 100 | > 100 | > 100 | > 100 | > 100 | > 100 | > 100
COC(=O)C1(CCCCl)CCCN1C(=O)OC(C)(C)C (stereo not drawn) | > 100 | > 100 |  | > 100 |  | > 100 | > 100 | > 100 | > 100 | > 100 | > 100
C#CCN(C(=O)C(F)(F)F)C(/C=C\C(=O)OC)(C(=O)OCC)C(=O)OCC |  | > 100 |  | > 100 | > 100 | > 100 | > 100 | > 100 | > 100 | > 100 | > 100
COc1ccc(OC)c(/C=C2/C(=O)N=C(NC(C)=O)N2C)c1 | > 100 | > 100 | > 100 | > 100 |  | > 100 | > 100 | > 100 | > 100 | > 100 | > 100
O=C1/C(=C/c2ccc(Br)s2)NC(=S)N1CN1CCCCC1 | 37.2 | > 100 |  | > 100 | > 100 | > 100 | 59.6 | 91.2 | > 100 | > 100 | > 100
COC(=O)C1CC2CC1C1C2SC(F)(F)C1(F)F (stereo not drawn) | > 100 | > 100 |  | > 100 | > 100 | > 100 | > 100 | > 100 | > 100 | > 100 | > 100
COC(=O)c1sc(=S)sc1SCc1cccc(CSc2sc(=S)sc2C(=O)OC)c1 | > 100 | 67.1 | 71.2 | > 100 | > 100 | > 100 | > 100 | > 100 | > 100 | > 100 | 
O=C(O)c1ccccc1/C=C1\Cc2cc3c(cc2C1=O)CCC3 | 44.8 | 65.2 |  | > 100 | > 100 | 51.5 | > 100 | 74.7 | > 100 | 60.4 | 80.8
